Laboratory results from patent US20090088373A1, “USE OF COMPOSITIONS TO ENHANCE INNATE IMMUNE RESPONSE” (priority 2007, published 2009).

Legend:
[1] = tested on: Staphylococcus aureus ΔmprF; experiment: Growth of S. aureus ΔmprF (OD600) mixed with lysates of stimulated normal human keratinocytes; assay type: cell-based; settings: for Bacterial growth OD600 (Mean): S. aureus + lysates of NHEK stimulated with 10 nM pimecrolimus, 1 nM 1.25D3 or combination, 37° C.
Experimental: To assess the effect of pimecrolimus on the innate immune response of the epidermis against bacteria, cultures of normal human keratinocytes (NHEK) are stimulated with a concentration of 10 nM pimecrolimus, 1 nM 1.25D3 (active 1.25 D-hydroxy calciferol) or their combination. Cells are lysed via sonication 20 minutes in an ice bath, after which cell lysates were mixed with Staphylococcus aureus ΔmprF cultures and incubated at 37° C. Bacterial growth over time is monitored by OD600 (Table 1). To determine if Pimecrolimus alone was able to kill Staphylococcus aureus ΔmprF, Pimecrolimus in a concentration of 10 nM is co-incubated with Staphylococcus aureus ΔmprF cultures and incubated at 37° C. (Table 2). Bacterial growth is monitored by OD600 (*: p<0.05; **: p<0.01; Student's t-test).

cathelicidin = experiment: Cathelicidin mRNA expression in normal human keratinocytes (NHEK); assay type: cell-based; set-up: Cathelicidin mRNA expression (Mean) / Cathelicidin mRNA expression (means): unit not given here; settings: for Cathelicidin mRNA expression (means): 1 uM tacrolimus, 1 ug/ml CsA, 25ng/ml rapamycin; for Cathelicidin mRNA expression (Means of N = 3): Example 6, 10 nM Pimecrolimus, 1 nM 1,25D3
Experimental: (§1) To assess the effect of pimecrolimus on the innate immune response of the epidermis, cultures of normal human keratinocytes (NHEK) are stimulated with combinations of a concentration of 10 nM pimecrolimus, 1 μg/ml TLR 2/CD14 ligand—peptidoglycan (PGN), 10 μg/ml lipoteichoic acid (LTA), 2 0.1 μg/ml TLR 2/6 ligand—Malp-, and/or 0.1 μg/ml TLR 4/CD14 ligand—lipopolysaccharide (LPS). Expression of cathelicidin mRNA (Table 3) and protein as well as Human Beta Defensin (HBD) 2 (Table 4) and HBD3 (Table 5) expression in normal human keratinocytes is measured.
(§2) To assess the effect of pimecrolimus on the innate immune response of the epidermis, cultures of normal human keratinocytes (NHEK) are stimulated with a concentration of 10 nM pimecrolimus,1 nM 1.25 D3, 0.1 μg/ml TLR2/6 ligand Malp-2 or their combination. Expression of cathelicidin, CD14 and TLR2 mRNA normal human keratinocytes is measured and evaluated accordingly to the procedures as detailed in Example 2 above.
To assess the effect of pimecrolimus on the innate immune response of the epidermis, cultures of normal human keratinocytes (NHEK) are stimulated with a concentration of 10 nM pimecrolimus, 1 uM tacrolimus, 1 ug/ml CsA, 25ng/ml rapamycin, or a combination of pimecrolimus and rapamycin, each of these with or without 0.1 μg/ml TLR2/6 ligand Malp-2. Cathelicidin mRNA expression is evaluated.
(§3) To assess the effect of time dependent effects of pimecrolimus on the innate immune response of the epidermis, cultures of normal human keratinocytes (NHEK) are stimulated with 10 nM Pimecrolimus and low dose calciferol (1,25D3) 1 nM for different time points. mRNA expression of cathelicidin, CD14 and TLR2 is analyzed by qPCR.
To assess the effect of varying levels of pimecrolimus on the innate immune response of the epidermis, cultures of normal human keratinocytes (NHEK) are stimulated with 0 nM, 5 nM, 10 nM, 20 nM, 30 nM, […], […] and 60 nM concentrations of pimecrolimus. Expression of cathelicidin mRNA expression is measured and evaluated accordingly to the procedures as detailed in Example 2 above.
To assess the effect of calciferol on varying levels of pimecrolimus on the innate immune response of the epidermis, cultures of normal human keratinocytes (NHEK) are stimulated with 0.01 nM, 0.1 nM, 1 nM and 10 nM concentrations of pimecrolimus with or without 1 nM concentrations of calciferol for 24 hours. Expression of cathelicidin mRNA and gene expression of TLR2 is measured and evaluated accordingly to the procedures as detailed in Example 2 above.

[2] = tested on: Human Beta Defensin (HBD) 2; experiment: HBD2 expression in normal human keratinocytes (NHEK); assay type: cell-based; set-up: unit not given here; settings: Example 2
Experimental: as §1

HBD3 = HBD3 expression in normal human keratinocytes (NHEK); assay type: cell-based; set-up: unit not given here; settings: Example 2
Experimental: as §1

TLR1 = TLR1 gene expression by qPCR in NHEK; assay type: cell-based, human; settings: Example 3; 10 nM pimecrolimus, 1 nM 1.25D3
Experimental: (§4) To assess the effect of pimecrolimus on the innate immune response of the epidermis, cultures of normal human keratinocytes (NHEK) are stimulated with a combination of a concentration of 10 nM pimecrolimus and of 1 nM 1.25D3. Gene expression of TLR1, TLR2, TLR4, TLR6 and CD14 are evaluated by qPCR. For CD14 protein expression, a Western Blot is performed and bands are quantified by densitometry using lmagej. Vehicle treated keratinocytes serve as controls. Cathelicidin protein expression is evaluated by immunofluorescence staining.

CD14 = CD14 gene expression by qPCR in NHEK; assay type: cell-based, human; settings: for CD14 mRNA expression (Mean): 10 nM pimecrolimus; for CD14 mRNA expression (Means of N = 3): Example 6, 10 nM Pimecrolimus, 1 nM 1,25D3
Experimental: as §4, §2, §3

[3] = in the presence of low dose 1,25D3 and Malp-2
[4] = with 10 nM Pimecrolimus + 0.1 μg/ml LPS
[5] = with 10 nM Pimecrolimus + 0.1 μg/ml Malp-2
[6] = with 10 nM Pimecrolimus + 1 μg/ml PGN
[7] = with 10 nM Pimecrolimus + 10 μg/ml LTA
[8] = with 10 nM Pimecrolimus, no TLR ligand (control row)

## CC[C@@H]1/C=C(\C)C[C@H](C)C[C@H](OC)[C@H]2O[C@@](O)(C(=O)C(=O)N3CCCC[C@H]3C(=O)O[C@H](/C(C)=C/[C@@H]3CC[C@H](Cl)[C@H](OC)C3)[C@H](C)[C@@H](O)CC1=O)[C@H](C)C[C@@H]2OC [Pimecrolimus, pimecrolimus]
[1]; 0 h
  Bacterial growth OD600 (Mean): 0.2253
[1]; 2 h
  Bacterial growth OD600 (Mean): 0.2557
[1]; 4 h
  Bacterial growth OD600 (Mean): 0.2807
[1]; 5 h
  Bacterial growth OD600 (Mean): 0.343
[1]; 6 h
  Bacterial growth OD600 (Mean): 0.4507
[1]; 8 h
  Bacterial growth OD600 (Mean): 0.6843
[1]; summary of Table 1
  Antimicrobial effect of keratinocytes against S. aureus ΔmprF (in words): increases the ability of keratinocytes to kill Staphylococcus aureus ΔmprF
cathelicidin; Example 2, with 10 nM Pimecrolimus + 0.1 μg/ml LPS
  Cathelicidin mRNA expression (Mean): 8.67
cathelicidin; Example 2, with 10 nM Pimecrolimus + 0.1 μg/ml Malp-2
  Cathelicidin mRNA expression (Mean): 26.08
cathelicidin; Example 2, with 10 nM Pimecrolimus + 1 μg/ml PGN
  Cathelicidin mRNA expression (Mean): 9.81
cathelicidin; Example 2, with 10 nM Pimecrolimus + 10 μg/ml LTA
  Cathelicidin mRNA expression (Mean): 18.56
cathelicidin; Example 2, with 10 nM Pimecrolimus, no TLR ligand (control row)
  Cathelicidin mRNA expression (Mean): 2.64
cathelicidin; Example 4, 10 nM pimecrolimus, 1 nM 1.25 D3, 0.1 μg/ml Malp-2 or combination
  Cathelicidin mRNA expression (Mean): 22.57
cathelicidin; Example 5, Experiment 1, with 0.1 μg/ml Malp-2, 10 nM pimecrolimus
  Cathelicidin mRNA expression (means): 2.98
cathelicidin; Example 5, Experiment 1, without Malp-2, 10 nM pimecrolimus
  Cathelicidin mRNA expression (means): 1.33
cathelicidin; Example 5, Experiment 2, with 0.1 μg/ml Malp-2, 10 nM pimecrolimus
  Cathelicidin mRNA expression (means): 3.07
cathelicidin; Example 5, Experiment 2, without Malp-2, 10 nM pimecrolimus
  Cathelicidin mRNA expression (means): 2.40
cathelicidin; 0 h
  Cathelicidin mRNA expression (Means of N = 3): 1.20
cathelicidin; 8 h
  Cathelicidin mRNA expression (Means of N = 3): 1.82
cathelicidin; 24 h
  Cathelicidin mRNA expression (Means of N = 3): 1.75
cathelicidin; 48 h
  Cathelicidin mRNA expression (Means of N = 3): 2.06
cathelicidin; Example 7
  Concentration at which cathelicidin mRNA expression peaks (bell-shaped dose response): 20 nM
cathelicidin; Example 7, 5 nM PIM
  Cathelicidin mRNA expression (Mean): 1.46
cathelicidin; Example 7, 10 nM Pim
  Cathelicidin mRNA expression (Mean): 2.26
cathelicidin; Example 7, 20 nM Pim
  Cathelicidin mRNA expression (Mean): 82.72
cathelicidin; Example 7, 40 nM Pim
  Cathelicidin mRNA expression (Mean): 3.37
cathelicidin; Example 7, 60 nM Pim
  Cathelicidin mRNA expression (Mean): 1.78
cathelicidin; Example 8, 0.01 nM PIM with 1 nM 1.25D3, 24 hours
  Cathelicidin mRNA expression (Mean): 4.56
cathelicidin; Example 8, 0.01 nM PIM, no 1.25D3, 24 hours
  Cathelicidin mRNA expression (Mean): 1.04
cathelicidin; Example 8, 0.1 nM PIM with 1 nM 1.25D3, 24 hours
  Cathelicidin mRNA expression (Mean): 4.19
cathelicidin; Example 8, 0.1 nM PIM, no 1.25D3, 24 hours
  Cathelicidin mRNA expression (Mean): 0.47
cathelicidin; Example 8, 1 nM PIM with 1 nM 1.25D3, 24 hours
  Cathelicidin mRNA expression (Mean): 10.92
cathelicidin; Example 8, 1 nM PIM, no 1.25D3, 24 hours
  Cathelicidin mRNA expression (Mean): 1.61
cathelicidin; Example 8, 10 nM PIM with 1 nM 1.25D3, 24 hours
  Cathelicidin mRNA expression (Mean): 99.45
cathelicidin; Example 8, 10 nM PIM, no 1.25D3, 24 hours
  Cathelicidin mRNA expression (Mean): 9.81
cathelicidin; at the 1 nM and 10 nM concentrations of pimecrolimus, 1 nM calciferol
  Increase of cathelicidin mRNA expression, pimecrolimus in conjunction with calciferol versus pimecrolimus alone: > 2 times
cathelicidin; in the presence of Toll 2/6 ligand Malp-2, summary of Tables 3-5 (cathelicidin, HBD2, HBD3)
  Transcript and protein abundance of antimicrobial genes (in words): increases transcript and protein abundance of antimicrobial genes
cathelicidin; [3]
  Cathelicidin transcript abundance (in words): enhances cathelicidin transcript abundance
[2]; [4]
  HBD2 expression (Mean): 1.34
[2]; [5]
  HBD2 expression (Mean): 867.92
[2]; [6]
  HBD2 expression (Mean): 0.51
[2]; [7]
  HBD2 expression (Mean): 1.77
[2]; [8]
  HBD2 expression (Mean): 6.53
HBD3; [4]
  HBD3 expression (Mean): 1.06
HBD3; [5]
  HBD3 expression (Mean): 28.59
HBD3; [6]
  HBD3 expression (Mean): 1.24
HBD3; [7]
  HBD3 expression (Mean): 0.72
HBD3; [8]
  HBD3 expression (Mean): 0.72
TLR1
  TLR1 mRNA expression (Mean): 3.16
CD14; Example 3, 1 nM 1.25D3
  CD14 mRNA expression (Mean): 2.07
CD14; Example 4, 1 nM 1.25 D3, 0.1 μg/ml Malp-2 or combination
  CD14 mRNA expression (Mean): 2.07
CD14; 0 h
  CD14 mRNA expression (Means of N = 3): 1.54
CD14; 8 h
  CD14 mRNA expression (Means of N = 3): 1.46
CD14; 24 h
  CD14 mRNA expression (Means of N = 3): 2.10
CD14; 48 h
  CD14 mRNA expression (Means of N = 3): 1.04
CD14; after 8 hours of treatment
  Effect on 1,25D3-induced CD14 mRNA expression (in words): suppressed
CD14; after 24 hours
  Effect on 1,25D3-induced CD14 mRNA expression (in words): enhanced
CD14; [3]
  CD14 expression (in words): increasing
